Patent publication US9629826B2, “CAI-based systems and methods for the localized treatment of uveitis” (Gen Pharma Holdings, LLC., priority 2014, dated 2017)
Entries after “also recorded” stand apart in the source; their conditions may differ.

Legend:
[1] = systemic CAI; cited from earlier work
[2] = cited from earlier work
neovascularization = assay: Contemplated clinical cases: intravitreal or periocular CAI against neovascularization; type: in vivo; conditions: contemplated cases: 50 mcg intravitreal (Example 9); 200 mcg intravitreal then periocular sustained-release (Example 10)
Excerpt: The following contemplated clinical cases of angiogenesis are presented as examples of methods of treatment and not as limitations. Other illustrations of treating systemic or localized angiogenesis are not presented, since the principles involved are similar, and will be apparent to the skilled reader based upon review of an individual's clinical manifestation and the preferred embodiments of the inventive compositions.
Person with Proliferative Diabetic Retinopathy and threshold high-risk characteristics presents with Vitreous Hemorrhage. The patient also has atrial fibrillation and ischemic cardiomyopathy that requires oral Coumadin. The patient is intolerant to topical Panretinal Photocoagulation. The INR measured at just less than 2. […] The patients Vitreous Hemorrhage slowly resolves and the patient is able to taper their Coumadin so that Panretinal Photocoagulation can be placed with retrobulbar anesthesia. Alternately, the patient remains on Coumadin and then is treated with a patch periocular insert of CAI to diminish the neovascularization.
Person with a two-week history of central scotoma. They developed a large disciform scar in the contralateral eye after several sessions of photodynamic therapy. On exam and fluorescein angiography is predominately classic subfoveal membrane is noted. […]

[3] = in vivo; cited from earlier work
[4] = cited from earlier work; remark: listed apart in the source

| Compound | plasma concentrations associated with unacceptable toxicity [1] | serious side effect associated with clinical use ([2]; systemic administration, two cases described) | toxic effects observed in clinical studies ([2]; systemic oral dosage regimens) | neovascular regression (neovascularization) | physiological tissue concentrations [3] | concentration detected in the vitreous cavity ([4]; single 5 mg peribulbar injection in humans) [ng/mL] | delivery to the subretinal space, higher following subconjunctival injection ([4]; subconjunctival injection) [fold] |
| --- | --- | --- | --- | --- | --- | --- | --- |
| NC(=O)c1nnn(Cc2cc(Cl)c(C(=O)c3ccc(Cl)cc3)c(Cl)c2)c1N [CAI] | above 100 micromolar | loss of vision | cerebellar ataxia, peripheral neuropathy and exacerbation of depression | some neovascular regression; also recorded: neovascular regression occurs | 1-10 μM |  |  |
| C[C@@H]1C[C@H]2[C@@H]3CCC4=CC(=O)C=C[C@]4(C)[C@@]3(F)[C@@H](O)C[C@]2(C)[C@@]1(O)C(=O)CO [Dexamethasone] |  |  |  |  |  | 13 | 10 |
